Measured values reported in patent publication US10543189B2, “2-acetylnaphtho[2,3-b]furan -4,9-dione for use on treating cancer” (Boston Biomedical, Inc., priority 2013, dated 2020).

Assay: Particle size distribution of milled/micronized Compound 1 crystals
Format: physicochemical
Conditions: for Particle Size D50: median size; for Particle Size D90: size for which 90% of particles are equal or smaller
Procedure: For example, Compound 1 crystals were milled (The Retsch Ultra centrifugal Mill ZM 200; Single pass, at 18,000 rpm using 0.25 mm screen) to a median particle size of about 20 micron. Table 3 presents the resultant distribution of particle sizes (Malvern 2000 with the Hydro 2000S wet accessory). The columns present the maximum size of particles in the cumulative percent total presented in the subscript at the header of the column. For example, the column D90 presents the size for which 90% of the particles have an equal or lesser size. The column D50 represents the median size—half of the particles have a greater size, and half of the particles have an equal or lesser size.
For example, Compound 1 crystals were micronized using a jet milling method (4″ Jet Mill, Venturi pressure=40, Mill pressure=100, Feed rate=1304 g/hour) to a median particle size of about 2 micron, as presented in Table 4. Particle size analysis was performed using a dry particle method (Sympatec Helos/KF Particle Size Analyzer).

Compound | Particle Size D10 | Particle Size D50 | Particle Size D90
CC(=O)c1cc2c(o1)C(=O)c1ccccc1C2=O [Sample A, 2-acetylnaphtho[2,3-b]furan-4,9-dione] | 0.53 microns | 2.07 microns | 4.63 microns
CC(=O)c1cc2c(o1)C(=O)c1ccccc1C2=O [Sample B, 2-acetylnaphtho[2,3-b]furan-4,9-dione] | 2.3 microns | 20.2 microns | 48.9 microns
